The numbers were not newly measured in patent US20100310474A1, “PROTEIN CAGES FOR THE DELIVERY OF MEDICAL IMAGING AND THERAPEUTIC AGENTS” (MONTANA STATE UNIVERSITY, priority 2002, published 2010), which cites them from elsewhere.

One data set deals with platlets and neutrophils. The following applies: cells bearing 67 kDa LBP.
The test system of a further data set is tumor angiogenesis. The following applies: mice.
The test system of a further data set is tumor cells. Particulars: free peptide.
In data set [1] the test system is experimental tumor lung colonization. The following applies: free peptide.

For the compound `Cc1ccc(C(=O)Nc2ccc(S(=O)(=O)O)c3cc(S(=O)(=O)O)cc(S(=O)(=O)O)c23)cc1NC(=O)c1cccc(NC(=O)Nc2cccc(C(=O)Nc3cc(C(=O)Nc4ccc(S(=O)(=O)O)c5cc(S(=O)(=O)O)cc(S(=O)(=O)O)c45)ccc3C)c2)c1` [suramin], the “cytotoxic effects on tumor cells” value with tumor cells in culture is “cytotoxic effects”.
Regarding CDPGYIGSRC [peptide 11], in the data set with platlets and neutrophils, the “toxic effect on platelets and neutrophils” value is recorded as “no toxic effect”. In the data set with tumor angiogenesis, the tumor angiogenesis result is “inhibits”. Also, the “invasion of basement membranes by tumor cells” value in the data set on tumor cells was “effectively blocks”. Besides, the “experimental tumor lung colonization” value in data set [1] was “reduces”.
